Assay [1] concerns PMNs. The assay can be described thus: NADPH/NADP+ detection assay in neutrophils. It is filed as cell-based, human. As to the method: The ratio of NADPH/NADP^+ (or NADH/NAD^+) was calculated after measuring the individual concentrations of NADPH and NADP^+ (or NADH and NAD^+) with NADP/NADPH-Glo (or NAD/NADH-Glo) assays (Promega). […] Cells were lysed in plates by addition of 1% dodecyltrimethylammonium bromide (DTAB). To measure NADPH, half of the samples was heated at 60 °C for 30 min. The other half was treated with HCl before heating to 60°C, to measure NADP^+. All samples were neutralized before adding luciferase detection reagent, then incubated for 1 h with gentle shaking. Luminescence was recorded on a plate reader (Envision).

The target in assay [2] is T1, 14-3-3 protein beta/alpha (YWHAB) (Homo sapiens, UniProt P31946).
T1 construct: endogenous in cells; host or cells: human blood leukocytes, labelled live
T1 sequence (P31946 whole entry): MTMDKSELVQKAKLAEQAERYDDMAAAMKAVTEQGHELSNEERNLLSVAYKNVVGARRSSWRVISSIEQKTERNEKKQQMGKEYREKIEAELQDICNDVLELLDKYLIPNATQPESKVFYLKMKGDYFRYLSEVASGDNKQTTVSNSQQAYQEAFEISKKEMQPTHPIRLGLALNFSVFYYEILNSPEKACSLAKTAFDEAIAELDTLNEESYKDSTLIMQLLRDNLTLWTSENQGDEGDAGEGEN
The assay can be described thus: PISA of neutrophil lysates (Data S2). Format: binding. The following applies: Comparison NA11_MidT-DMSO_MidT. As to the method: (§1) Neutrophils (3 × 10^7) were treated with 50 nM PMA for 20 min. Cell were washed twice in D-PBS, resuspended in KB buffer (25 mM Tris-HCL pH 7.5, 1 mM DTT, 10 mM MgCl2) and frozen in liquid nitrogen. Lysates were prepared by 5-7 freeze-thaw cycles in KB buffer. Protein concentration was determined via Bradford assay and lysates were incubated on ice for 30 min with either 10 μM NA-11 or DMSO vehicle. Samples were analyzed in two formats: (1) classical thermal proteome profiling (TPP) with full melting curves using 16-plex TMT labeling (8 temperatures between 37-65°C), and (2) Proteome Integral Solubility Alteration (PISA) assay with aggregated protein abundance from a defined temperature range using 10-plex TMT labeling (Five replicates 44-58°C). Aliquots (5 mg) were divided and heated at 8 temperatures in the 37-65°C range or 6 temperatures in the 44-58°C range, and cooled on ice for 3 min.
(§2) For TPP, heated lysates from different temperatures were kept separate. For PISA, lysates from different temperatures were combined based on treatment. Samples were centrifuged at 20,000 x g for 20 min at 4°C and supernatants were isolated for analysis. Proteins were denatured in 4 M urea, reduced with 5 mM DTT at 60°C for 20 min, and alkylated with 11 mM iodoacetamide (IAA) for 20 min. Urea was diluted to 2 M with 20 mM HEPES. Proteins were digested with Lys-C (Wako) diluted 1:50 for 3 h at 37°C, and then with Trypsin (PTMScan) diluted 1:100 overnight at 37°C. Peptides were cleaned on C18 Sep-Pak cartridges, 50 mg absorbent (Waters, WAT054960) and labeled with 16-plex TMTpro or 10-plex TMT. Labeled peptides were pooled, cleaned on a C18 Sep-Pak cartridge, and fractionated by offline high pH reversed phase separation and combined into 12 fractions in checkerboard fashion. Peptides were cleared on C18 STAGE-tips before mass spectrometry.
(§3) For the classical TPP, quantitative data from each temperature were used to generate a thermal titration curve and calculate a melting point. PSM level quantitation was log2 transformed and summarized to protein level by aggregating all PSMs from the same primary Uniprot reference, and systematic variation between the treatments was normalized at each temperature. A thermal titration curve was fitted from experimental data for each protein and for each treatment condition using Self-Starting Nls Four-Parameter Logistic Model from stats v3.6.2 in R. Melting point was calculated at the 50% between intensity at the lowest temperature and intensity at the highest temperature. A quality score is calculated for each protein by evaluating R squares, curve slopes and similarity in slopes between the two fitted curves. For the PISA experiment, quantitative data from each replicate of combined temperatures were used to calculate fold changes and p values between the treatment conditions. Quantified PSMs were normalized based on global median abundance among all PSMs, and then summarized to the protein level using statistical package MSstats_3.14.1 ([Choi et al., 2014]). Fold changes and p values were calculated between pre-defined treatment groups by the MSstats package. For the photoaffinity probe based pull-down study, pairwise differential analysis was applied to treatment groups. TMT abundance of all PSMs was aggregated to their respective proteins. Ratios between each treatment group were calculated based on their mean protein abundance from replicates and a Student’s t test was applied to each pair to calculate p values. […]

Assay [3] concerns the target T2, 14-3-3 protein epsilon (YWHAE) (Homo sapiens, UniProt P62258).
T2 construct: endogenous in cells; host or cells: human blood leukocytes, labelled live
The assay is described as follows: PISA of neutrophil lysates (Data S2). Format: binding. The following applies: Comparison NA11_MidT-DMSO_MidT. As to the method: as §1, §2, §3

Assay [4] has as its target T3, 14-3-3 protein eta (YWHAH) (Homo sapiens, UniProt Q04917).
T3 construct: endogenous in cells; host or cells: human neutrophil lysate
The assay can be described thus: PISA of neutrophil lysates (Data S2). The following applies: Comparison NA11_MidT-DMSO_MidT. It is filed as binding. As to the method: as §1, §2, §3

The target in assay [5] is T4, 14-3-3 protein gamma (YWHAG) (Homo sapiens, UniProt P61981).
T4 construct: endogenous in cells; host or cells: human neutrophil lysate
T4 sequence (P61981 whole entry): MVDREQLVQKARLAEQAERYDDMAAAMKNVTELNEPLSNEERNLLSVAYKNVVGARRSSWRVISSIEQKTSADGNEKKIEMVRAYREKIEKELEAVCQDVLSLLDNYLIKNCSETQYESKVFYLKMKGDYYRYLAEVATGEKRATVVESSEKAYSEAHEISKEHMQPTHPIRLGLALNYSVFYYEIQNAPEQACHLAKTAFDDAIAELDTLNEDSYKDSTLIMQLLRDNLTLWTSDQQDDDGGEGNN
The assay can be described thus: PISA of neutrophil lysates (Data S2). Format: binding. The following applies: Comparison NA11_MidT-DMSO_MidT. As to the method:
as §1, §2, §3

Assay [6] concerns the target T5, 14-3-3 protein theta (YWHAQ) (Homo sapiens, UniProt P27348).
T5 construct: endogenous in cells; host or cells: human neutrophil lysate
The assay can be described thus: PISA of neutrophil lysates (Data S2). Format: binding. To be noted: Comparison NA11_MidT-DMSO_MidT. As to the method: as §1, §2, §3

T2 sequence (P62258 whole entry): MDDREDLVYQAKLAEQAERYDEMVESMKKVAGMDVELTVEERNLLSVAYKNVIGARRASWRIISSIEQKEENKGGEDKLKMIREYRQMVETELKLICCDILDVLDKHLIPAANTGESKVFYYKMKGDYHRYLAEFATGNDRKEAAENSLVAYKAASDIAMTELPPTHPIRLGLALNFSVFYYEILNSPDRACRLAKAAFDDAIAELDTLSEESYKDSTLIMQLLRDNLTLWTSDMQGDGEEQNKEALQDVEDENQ
T3 sequence (Q04917 whole entry): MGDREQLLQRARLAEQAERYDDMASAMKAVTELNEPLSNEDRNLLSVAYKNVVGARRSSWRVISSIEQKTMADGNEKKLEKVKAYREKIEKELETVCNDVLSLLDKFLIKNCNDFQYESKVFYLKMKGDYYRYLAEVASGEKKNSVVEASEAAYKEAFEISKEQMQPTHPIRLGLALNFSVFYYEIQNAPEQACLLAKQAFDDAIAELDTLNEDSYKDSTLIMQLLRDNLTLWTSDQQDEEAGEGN
T5 sequence (P27348 whole entry): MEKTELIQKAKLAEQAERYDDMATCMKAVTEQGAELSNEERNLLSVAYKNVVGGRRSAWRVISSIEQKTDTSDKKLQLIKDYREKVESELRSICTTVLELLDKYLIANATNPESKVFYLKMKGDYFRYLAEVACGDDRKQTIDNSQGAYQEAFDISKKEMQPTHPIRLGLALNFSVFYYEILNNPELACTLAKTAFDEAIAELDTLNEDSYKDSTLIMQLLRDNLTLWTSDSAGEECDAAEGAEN

`CC(=O)Nc1ccc2c(c1)OCc1cc(-c3ccccc3C#CCCCO)nn1C2` [NA-11]: the “NADPH replenishment / turnover after apocynin” value in assay [1] (PMA 30 min, then apocynin) is recorded as “slower to replenish NADPH”. Further, the “NADPH/NADP+ ratio in resting cells” value in assay [1] (resting neutrophils) is “did not change the NADPH/NADP^+ ratio”. Besides, the log2FC in assay [2] is recorded as -0.07; in assay [3] it was -0.04; in assay [4], 0.0948; in assay [5], 0.0136; in assay [6], -0.18.

Source of the values: publication PMC8802628, “Selective activation of PFKL suppresses the phagocytic oxidative burst” (Cell, 2021).
